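Tested at 5 concentrations; 48 h exposure; 96-well plates; endpoints linearly interpolated, else capped at highest concentration. TGI denotes the concentration required for complete inhibition of growth.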
Columns and labels:
Test in all cases: inhibition of tumour cell growth, NCI panel, 48 h
[1] = tested on: SK-MEL-2 melanoma
[2] = tested on: SR leukemia
[3] = tested on: T-47D breast
[4] = tested on: 786-0 renal
[5] = tested on: MDA-N
[6] = tested on: NCI-H23 lung
[7] = tested on: SF-539 CNS
[8] = tested on: MDA-MB-231 breast
[9] = tested on: SN12C renal
[10] = tested on: SW-620 colon
[11] = tested on: SK-OV-3 ovarian
[12] = tested on: HOP-92 NSCLC
[13] = tested on: HT29 colon
[14] = tested on: HOP-62 NSCLC
[15] = tested on: OVCAR-4 ovarian
[16] = tested on: MOLT-4 leukemia
[17] = tested on: SF-268 CNS
[18] = tested on: A498 renal
[19] = tested on: NCI-H226 lung
[20] = tested on: MALME-3M melanoma
[21] = tested on: KM12 colon
[22] = tested on: OVCAR-8 ovarian
[23] = tested on: LOX IMVI melanoma
[24] = tested on: SNB-19 CNS
[25] = tested on: TK-10 renal
[26] = tested on: CAKI-1 renal
[27] = tested on: NCI-H522 lung
[28] = tested on: UACC-257 melanoma
[29] = tested on: U251 CNS
[30] = tested on: DU-145 prostate
[31] = tested on: IGROV1 ovarian
[32] = tested on: UACC-62 melanoma
[33] = tested on: COLO 205 colon
[34] = tested on: SK-MEL-28 melanoma
[35] = tested on: HL-60(TB) leukemia
[36] = tested on: NCI/ADR-RES ovarian
[37] = tested on: OVCAR-5 ovarian
[38] = tested on: SK-MEL-5 melanoma
[39] = tested on: OVCAR-3 ovarian
[40] = tested on: A549 NSCLC
[41] = tested on: SF-295 CNS
[42] = tested on: MCF7 breast
[43] = tested on: NCI-H460 lung
[44] = tested on: HCT-116 colon
[45] = tested on: RPMI-8226 leukemia
[46] = tested on: MDA-MB-435
[47] = tested on: UO-31 renal
[48] = tested on: EKVX NSCLC
[49] = tested on: K-562 leukemia
[50] = tested on: ACHN renal
[51] = tested on: BT-549 breast
[52] = tested on: PC-3 prostate
[53] = tested on: HCT-15 colon
[54] = tested on: M14 melanoma
[55] = tested on: RXF 393 renal
[56] = tested on: SNB-75 CNS
[57] = tested on: HS 578T breast
[58] = tested on: CCRF-CEM leukemia
[59] = tested on: HCC-2998 colon

S=C(S)NCCCn1ccnc1
TGI [1]: > 100 µM
TGI [2]: > 100 µM
TGI [3]: > 100 µM
TGI [4]: > 100 µM
TGI [5]: > 100 µM
TGI [6]: > 100 µM
TGI [7]: > 100 µM
TGI [8]: > 100 µM
TGI [9]: > 100 µM
TGI [10]: > 100 µM
TGI [11]: > 100 µM
TGI [12]: > 100 µM
TGI [13]: > 100 µM
TGI [14]: > 100 µM
TGI [15]: > 100 µM
TGI [16]: > 100 µM
TGI [17]: > 100 µM
TGI [18]: > 100 µM
TGI [19]: > 100 µM
TGI [20]: > 100 µM
TGI [21]: > 100 µM
TGI [22]: > 100 µM
TGI [23]: > 100 µM
TGI [24]: > 100 µM
TGI [25]: > 100 µM
TGI [26]: > 100 µM
TGI [27]: > 100 µM
TGI [28]: > 100 µM
TGI [29]: > 100 µM
TGI [30]: > 100 µM
TGI [31]: > 100 µM
TGI [32]: > 100 µM
TGI [33]: > 100 µM
TGI [34]: > 100 µM
TGI [35]: > 100 µM
TGI [36]: > 100 µM
TGI [37]: > 100 µM
TGI [38]: > 100 µM
TGI [39]: > 100 µM
TGI [40]: > 100 µM
TGI [41]: > 100 µM
TGI [42]: > 100 µM
TGI [43]: > 100 µM
TGI [44]: > 100 µM
TGI [45]: > 100 µM
TGI [46]: > 100 µM
TGI [47]: > 100 µM
TGI [48]: > 100 µM
TGI [49]: > 100 µM
TGI [50]: > 100 µM
TGI [51]: > 100 µM
TGI [52]: > 100 µM
TGI [53]: > 100 µM
TGI [54]: > 100 µM

Cn1cc(C=C(C#N)C#N)c(=O)n(C)c1=O
TGI [1]: > 100 µM
TGI [3]: > 100 µM
TGI [4]: > 100 µM
TGI [5]: > 100 µM
TGI [6]: > 100 µM
TGI [7]: > 100 µM
TGI [8]: > 100 µM
TGI [9]: > 100 µM
TGI [10]: > 100 µM
TGI [11]: > 100 µM
TGI [12]: > 100 µM
TGI [13]: > 100 µM
TGI [14]: > 100 µM
TGI [15]: > 100 µM
TGI [16]: > 100 µM
TGI [17]: > 100 µM
TGI [18]: > 100 µM
TGI [19]: > 100 µM
TGI [21]: > 100 µM
TGI [22]: > 100 µM
TGI [23]: > 100 µM
TGI [24]: > 100 µM
TGI [25]: > 100 µM
TGI [26]: > 100 µM
TGI [27]: > 100 µM
TGI [28]: > 100 µM
TGI [29]: > 100 µM
TGI [30]: > 100 µM
TGI [31]: > 100 µM
TGI [32]: > 100 µM
TGI [33]: > 100 µM
TGI [34]: > 100 µM
TGI [36]: > 100 µM
TGI [55]: > 100 µM
TGI [37]: > 100 µM
TGI [38]: > 100 µM
TGI [39]: > 100 µM
TGI [40]: > 100 µM
TGI [41]: > 100 µM
TGI [42]: > 100 µM
TGI [43]: > 100 µM
TGI [56]: > 100 µM
TGI [44]: > 100 µM
TGI [45]: > 100 µM
TGI [46]: > 100 µM
TGI [47]: > 100 µM
TGI [48]: > 100 µM
TGI [57]: > 100 µM
TGI [50]: > 100 µM
TGI [51]: > 100 µM
TGI [52]: > 100 µM
TGI [53]: > 100 µM
TGI [54]: > 100 µM

O=C(CN1CCOCC1)NC1=Nc2ncccc2C(=O)NN1
TGI [1]: > 10 µM
TGI [2]: > 10 µM
TGI [3]: > 10 µM
TGI [4]: > 10 µM
TGI [5]: > 10 µM
TGI [6]: > 10 µM
TGI [7]: > 10 µM
TGI [8]: > 10 µM
TGI [9]: > 10 µM
TGI [10]: > 10 µM
TGI [11]: > 10 µM
TGI [12]: > 10 µM
TGI [13]: > 10 µM
TGI [14]: > 10 µM
TGI [16]: > 10 µM
TGI [17]: > 10 µM
TGI [58]: > 10 µM
TGI [18]: > 10 µM
TGI [19]: > 10 µM
TGI [20]: > 10 µM
TGI [21]: > 10 µM
TGI [22]: > 10 µM
TGI [23]: > 10 µM
TGI [24]: > 10 µM
TGI [25]: > 10 µM
TGI [28]: > 10 µM
TGI [29]: > 10 µM
TGI [30]: > 10 µM
TGI [31]: > 10 µM
TGI [32]: > 10 µM
TGI [34]: > 10 µM
TGI [35]: > 10 µM
TGI [55]: > 10 µM
TGI [37]: > 10 µM
TGI [38]: > 10 µM
TGI [39]: > 10 µM
TGI [40]: > 10 µM
TGI [41]: > 10 µM
TGI [42]: > 10 µM
TGI [43]: > 10 µM
TGI [56]: > 10 µM
TGI [44]: > 10 µM
TGI [45]: > 10 µM
TGI [46]: > 10 µM
TGI [47]: > 10 µM
TGI [48]: > 10 µM
TGI [49]: > 10 µM
TGI [57]: > 10 µM
TGI [50]: > 10 µM
TGI [51]: > 10 µM
TGI [52]: > 10 µM
TGI [53]: > 10 µM
TGI [54]: > 10 µM

Cc1c(Cl)c(S(N)(=O)=O)cc(S(N)(=O)=O)c1NC(=O)c1ccc(Cl)cc1
TGI [3]: > 100 µM
TGI [4]: > 100 µM
TGI [5]: > 100 µM
TGI [6]: > 100 µM
TGI [9]: > 100 µM
TGI [10]: > 100 µM
TGI [11]: > 100 µM
TGI [12]: > 100 µM
TGI [59]: > 100 µM
TGI [13]: > 100 µM
TGI [14]: > 100 µM
TGI [15]: > 100 µM
TGI [16]: > 100 µM
TGI [17]: > 100 µM
TGI [58]: > 100 µM
TGI [18]: > 100 µM
TGI [19]: > 100 µM
TGI [20]: > 100 µM
TGI [21]: > 100 µM
TGI [22]: > 100 µM
TGI [23]: > 100 µM
TGI [24]: > 100 µM
TGI [25]: > 100 µM
TGI [26]: > 100 µM
TGI [27]: > 100 µM
TGI [28]: > 100 µM
TGI [29]: > 100 µM
TGI [30]: > 100 µM
TGI [31]: > 100 µM
TGI [32]: > 100 µM
TGI [33]: > 100 µM
TGI [34]: > 100 µM
TGI [35]: > 100 µM
TGI [36]: > 100 µM
TGI [55]: > 100 µM
TGI [37]: > 100 µM
TGI [38]: > 100 µM
TGI [39]: > 100 µM
TGI [40]: > 100 µM
TGI [41]: > 100 µM
TGI [42]: > 100 µM
TGI [43]: > 100 µM
TGI [56]: > 100 µM
TGI [44]: > 100 µM
TGI [45]: > 100 µM
TGI [46]: > 100 µM
TGI [47]: > 100 µM
TGI [49]: > 100 µM
TGI [57]: > 100 µM
TGI [50]: > 100 µM
TGI [51]: > 100 µM
TGI [52]: > 100 µM
TGI [53]: > 100 µM
TGI [54]: > 100 µM
